Usually melting point stands for the temperature of the solid-liquid transition.

We go through four compounds from patent US20060293307A1, “Oxazolidinone derivatives as antimicrobials” (priority 2002, published 2006).

Values after ≈ are worked out from the molar mass of the structure shown. Like-named read-outs stand apart in the source and are kept apart here.

One series has as its system H. influenzae R. Description: MIC against Haemophilus strains. It counts as cell-based. The settings on record: s. No. 4, H. influenzae R.
The next series deals with H. influenzae 35056. Put plainly: MIC against Haemophilus strains. The series is classed as cell-based. As to conditions: s. No. 1, H. influenzae 35056.
In the next series the test system is H. influenzae 474. Description: MIC against Haemophilus strains. It counts as cell-based. The settings on record: s. No. 11, H. influenzae 474.
The subject of the next series is H. influenzae ATCC 49247. Description: MIC against Haemophilus strains. The series is classed as cell-based. The settings on record: s. No. 2, H. influenzae ATCC 49247.
The subject of the next series is H. influenzae 1745. Put plainly: MIC against Haemophilus strains. It counts as cell-based. The settings on record: s. No. 9, H. influenzae 1745.
The test system of another series is H. influenzae 1381. Description: MIC against Haemophilus strains. The series is classed as cell-based. As to conditions: s. No. 7, H. influenzae 1381.
The test system of the next series is H. influenzae P318. Put plainly: MIC against Haemophilus strains. The series is classed as cell-based. The settings on record: s. No. 10, H. influenzae P318.
The subject of the next series is H. influenzae 49766. Description: MIC against Haemophilus strains. The settings on record: s. No. 6, H. influenzae 49766. The series is classed as cell-based.
A further series relates to H. influenzae 451. Description: MIC against Haemophilus strains. The series is classed as cell-based. The settings on record: s. No. 8, H. influenzae 451.
In the next series the test system is H. influenzae βIac. Description: MIC against Haemophilus strains. The series is classed as cell-based. The settings on record: s. No. 3, H. influenzae βIac.
Another series has as its system H. influenzae 23. Put plainly: MIC against Haemophilus strains. The series is classed as cell-based. As to conditions: s. No. 5, H. influenzae 23.
[1] abbreviates: Haemophilus influenzae, read-out: MIC.

As to `O=C(CF)NC[C@H]1CN(c2ccc(N3CCN(c4ccc([N+](=O)[O-])s4)CC3)c(F)c2)C(=O)O1`, the melting point lay within 145 to 150 °C.

As for `CO/N=C(\C(=O)N[C@@H]1C(=O)N2C(C(=O)O)=C(CSc3nc(=O)c(O)nn3C)CS[C@H]12)c1csc(N)n1` [Ceftriaxone, reference compound], the MIC was 0.004 µg/mL (≈ 0.00721 µM) in the series with H. influenzae R; 0.06 µg/mL (≈ 0.108 µM) against H. influenzae 35056; 0.004 µg/mL (≈ 0.00721 µM) against H. influenzae 474; 0.125 µg/mL (≈ 0.225 µM) against H. influenzae ATCC 49247; 0.004 µg/mL (≈ 0.00721 µM) with H. influenzae 1745; 0.008 µg/mL (≈ 0.0144 µM) against H. influenzae 1381. Further, the MIC with H. influenzae P318 was 0.015 µg/mL (≈ 0.027 µM); against H. influenzae 49766, 0.008 µg/mL (≈ 0.0144 µM); in the series with H. influenzae 451 it was 0.008 µg/mL (≈ 0.0144 µM); in the series on H. influenzae βIac it was below 0.002 µg/mL; against H. influenzae 23 it was 0.004 µg/mL (≈ 0.00721 µM).

Turning to `C[C@H]1COc2c(N3CCN(C)CC3)c(F)cc3c(=O)c(C(=O)O)cn1c23` [LevoFloxaci, reference compound], the MIC in the series with H. influenzae R is 0.015 µg/mL (≈ 0.0415 µM); in the series on H. influenzae 35056, 0.015 µg/mL (≈ 0.0415 µM); in the series with H. influenzae 474, 0.015 µg/mL (≈ 0.0415 µM); in the series with H. influenzae ATCC 49247, 0.015 µg/mL (≈ 0.0415 µM); with H. influenzae 1745 it was 0.03 µg/mL (≈ 0.083 µM); against H. influenzae 1381, 0.015 µg/mL (≈ 0.0415 µM). For the same compound, the MIC stood at 0.03 µg/mL (≈ 0.083 µM) against H. influenzae P318; 0.03 µg/mL (≈ 0.083 µM) in the series on H. influenzae 49766; 0.015 µg/mL (≈ 0.0415 µM) in the series on H. influenzae 451; 0.008 µg/mL (≈ 0.0221 µM) in the series with H. influenzae βIac; 0.015 µg/mL (≈ 0.0415 µM) against H. influenzae 23.

In the case of `CC[C@H]1OC(=O)[C@H](C)C(=O)[C@H](C)[C@@H](O[C@@H]2O[C@H](C)C[C@H](N(C)C)[C@H]2O)[C@](C)(OC)C[C@@H](C)C(=O)[C@H](C)[C@H]2N(CCCCn3cnc(-c4cccnc4)c3)C(=O)O[C@]12C` [Telithromycin, reference compound], the MIC was found to be 2 µg/mL (≈ 2.46 µM) in the series on H. influenzae R (setting [1]); 2 µg/mL (≈ 2.46 µM) in the series on H. influenzae 35056 (setting [1]); 2 µg/mL (≈ 2.46 µM) with H. influenzae 474 (setting [1]); 2 µg/mL (≈ 2.46 µM) in the series on H. influenzae ATCC 49247 (Haemophilus influenzae, ATCC49247, read-out: MIC); 1 µg/mL (≈ 1.23 µM) in the series with H. influenzae 1745 (setting [1]); 2 µg/mL (≈ 2.46 µM) in the series with H. influenzae 1381 (setting [1]). The MIC with H. influenzae P318 (setting [1]) was found to be 1 µg/mL (≈ 1.23 µM); with H. influenzae 49766 (setting [1]), 2 µg/mL (≈ 2.46 µM); in the series with H. influenzae 451 (setting [1]), 2 µg/mL (≈ 2.46 µM); with H. influenzae βIac (setting [1]), 2 µg/mL (≈ 2.46 µM); in the series with H. influenzae 23 (setting [1]), 2 µg/mL (≈ 2.46 µM).
